Patent US20230201341A1, “TLR3 AND TLR9 AGONISTS AS VACCINE ADJUVANTS FOR ANTI-CANCER DNA VACCINES” (WISCONSIN ALUMNI RESEARCH FOUNDATION, priority 2021, published 2023)

System: TRAMP-C1 tumor cells
Assay: Tumor study with TRAMP-C1 tumors: DNA vaccine pTVG-AR co-delivered with TLR agonists
Assay type: in vivo, C57BL/6 mice
Details: administered with a DNA cancer vaccine in mice; compared with vaccine alone
From the text: FIG. 6. Combinations of TLR agonists improve the anti-tumor efficacy of a DNA vaccine in a prostate cancer tumor model. C57BL/6 mice were implanted subcutaneously with TRAMP-C1 tumor cells. Mice were immunized intradermally weekly with control vector (pTVG4) or DNA encoding AR ligand-binding domain (pTVG-AR) and delivered alone or co-delivered with TLR1/2, TLR3 and/or TLR9 agonists. (A) shown are the growth curves for each group (n=6 animals per group). (B) Survival plots using the time to death or when tumors reached 2 cm3 in size, whichever occurred first. (C) Tumors obtained at necropsy were evaluated for the percentage of infiltrating CD45^+ cells, CD8^+ T cells among CD45^+ cells, and Treg cells (CD25^+Foxp3^+) among CD4^+CD45^+ cells. (D) Tumor-infiltrating CD8+ T cells were evaluated for 4-1BB and PD-1 expression by flow cytometry.
FIG. 11. Combinations of TLR agonists improve the anti-tumor efficacy of a DNA vaccine in a prostate cancer tumor model. […]
Six- to ten-week-old male C57BL/6 mice were inoculated with 1×10^6 TRAMP-C1 cells, administered subcutaneously with matrigel. […] TLR agonist(s) were co-administered with the vaccine intradermally, and tumor volumes were measured as described above. Obtained tumors were digested in collagenase and DNAse I for 1 hour at 37° C., passed through a […] screen, and analyzed by flow cytometry.

Substance: ODN 1826
- tumor growth suppression: improved the tumor growth suppression
